One compound from patent publication US9004162B2, “Methods of stimulating acetoclastic methanogenesis in subterranean deposits of carbonaceous material” (Transworld Technologies Inc., priority 2012, dated 2015) can be followed below.

SMILES strings stand for the structures.

The test concerns microorganism consortium in the subterranean formation. The protocol:
Field tests were conducted on a mature coal-bed methane natural gas well in the Powder River Basin region in Wyoming. […] Total injection volume was 975,450 gallons of formation water, as well as 575.7 lbs. of sodium acetate trihydrate and 2404.7 lbs. of anhydrous sodium acetate. The effective average concentration of acetate in the injection water was 4.06 mM. In the pretreatment period, well 23M-2283 was used to access a microorganism consortium in the subterranean formation and obtain samples for microorganism population analysis.

As for `CC(=O)[O-].[Na+]` [acetate amendment, sodium acetate], under “after acetate amendment introduced in situ (effective average 4.06 mM acetate in injection water), pretreatment 4.2×10^4 cells/ml”, the “total microbial population density” value is 1.5×10^6 cells/ml. In addition, the “acetoclastic methanogens as share of total archaea population” value (at some points during natural gas recovery operations following the two-week period) is listed as about 100%. The “acetoclastic methanogens as share of total archaea” value (two weeks after introduction of the amendment, pretreatment ~20%) is “greater than 90%”. For the same compound, where the note is “two weeks after introduction of the amendment, pretreatment ~80%”, the “hydrogenotrophic methanogens as share of total archaea” value is reported as “less than 10%”.
